This is an account of results in paper PMC9308172 (Journal of medicinal chemistry, 2017).

One assay concerns A/WSN/33-M2-N31S. In kind it is cell-based, Influenza virus A/WSN/33 (H1N1). As to conditions: read-out: IC50 A/WSN/33-M2-N31S.
The test system of assay [1] is A/California/07/2009 (H1N1) M2: N31. As to conditions: cited from earlier work.

Structures are written as SMILES.

On to `CCC1(N)C2CC3CC(C2)CC1C3` (stereo not shown) [Compound 4], for which, in the assay on A/WSN/33-M2-N31S, the IC50 is 340 ± 260 nM.

For `CCCC1(N)C2CC3CC(C2)CC1C3` (stereo not shown) [Compound 5], the “blockage of full-length S31N M2 protein in electrophysiology (EP) studies” value in assay [1] is on record as “no blockage”. For the same molecule, the IC50 with A/WSN/33-M2-N31S was 340 ± 100 nM.

In the case of `CC12CC3CC(CC(C3)C13CCCN3)C2` (stereo not shown) [Compound 8, 1′-Methylspiro[pyrrolidine-2,2′-adamantane]], in the assay with A/WSN/33-M2-N31S, the IC50 worked out at 6120 ± 2590 nM.

Regarding `CC1(N)C2CC3CC(C2)CC1C3` (stereo not shown) [Compound 3], in the assay with A/WSN/33-M2-N31S, the IC50 came to 330 ± 100 nM.

Turning to `CN1CCCC12C1CC3CC(C1)CC2C3` (stereo not shown) [Compound 7], the IC50 in the assay with A/WSN/33-M2-N31S turned out to be 900 ± 290 nM.

For `NC1(C23CC4CC(CC(C4)C2)C3)CCCC1` [Compound 9], the IC50 with A/WSN/33-M2-N31S was found to be 4340 ± 2940 nM.

For `NC1C2CC3CC(C2)CC1C3` (stereo not shown) [Compound 2], the IC50 in the assay with A/WSN/33-M2-N31S worked out at 420 ± 460 nM.

On to `C1CNC2(C1)C1CC3CC(C1)CC2C3` (stereo not shown) [Compound 6], for which, in the assay with A/WSN/33-M2-N31S, the IC50 was found to be 340 ± 80 nM.

As to `NC12CC3CC(CC(C3)C1)C2` [Compound 1, Amantadine, reference compound], the IC50 with A/WSN/33-M2-N31S is 270 ± 160 nM.
